Test results reported in patent US7041810B2, “Alpha-2 adrenergic receptor polymorphisms” (University Of Cincinnati, priority 2000, dated 2006).
Residue numbers refer to the chain shown, from its start. Blank lines part the entries; values can stand above or below the molecule they belong to.

What was measured:
Lys251 alpha-2AAR [1] = target: T1, Lys251 alpha-2AAR (Homo sapiens, UniProt P08913, N266K); assay: [35S]GTPγS binding, membranes of COS-7 cells coexpressing Giα2; assay type: biochemical; set-up: expressed in transfected cells; membranes or intact cells; details: 10 μM agonist
T1 sequence (P08913 16-465 N266K): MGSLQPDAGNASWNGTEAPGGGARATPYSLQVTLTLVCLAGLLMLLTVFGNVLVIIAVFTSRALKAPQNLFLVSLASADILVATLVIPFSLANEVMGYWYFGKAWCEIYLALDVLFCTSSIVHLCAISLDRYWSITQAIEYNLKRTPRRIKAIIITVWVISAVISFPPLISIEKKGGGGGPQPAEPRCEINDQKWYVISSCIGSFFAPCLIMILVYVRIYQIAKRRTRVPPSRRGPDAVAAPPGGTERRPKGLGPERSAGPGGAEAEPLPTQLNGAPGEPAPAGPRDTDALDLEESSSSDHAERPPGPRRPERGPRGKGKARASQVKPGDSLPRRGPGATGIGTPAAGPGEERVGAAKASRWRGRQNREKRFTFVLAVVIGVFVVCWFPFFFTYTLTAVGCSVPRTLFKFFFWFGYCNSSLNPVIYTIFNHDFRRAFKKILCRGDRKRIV
Method: Receptor-G protein interaction was quantitated by [^35S] radiolabeled guanosine-5′-O-(3-thiotriphosphate) ([^35S]GTPγS) binding in COS-7 cells transiently transfected with each alpha-2AAR construct and Giα2. […] Nonspecific binding was measured in the presence of 10 μM GTPγS.

[2] = target: T2, wild-type Asn251 alpha-2AAR (Homo sapiens, UniProt P08913); details: 5.0 μM forskolin, no agonist
T2 sequence (P08913 16-465): T1 sequence (P08913 16-465 N266K) with K251N

Lys251 alpha-2AAR [3] = target: T1, Lys251 alpha-2AAR
wild-type alpha-2BAR [4] = target: T3, wild-type alpha-2BAR (Homo sapiens, UniProt P18089); assay: Inhibition of forskolin stimulated adenylyl cyclase and desensitization, CHO membranes; assay type: biochemical; set-up: The human receptor consists of 450 amino acids; expressed in transfected cells
T3 sequence (P18089 1-450): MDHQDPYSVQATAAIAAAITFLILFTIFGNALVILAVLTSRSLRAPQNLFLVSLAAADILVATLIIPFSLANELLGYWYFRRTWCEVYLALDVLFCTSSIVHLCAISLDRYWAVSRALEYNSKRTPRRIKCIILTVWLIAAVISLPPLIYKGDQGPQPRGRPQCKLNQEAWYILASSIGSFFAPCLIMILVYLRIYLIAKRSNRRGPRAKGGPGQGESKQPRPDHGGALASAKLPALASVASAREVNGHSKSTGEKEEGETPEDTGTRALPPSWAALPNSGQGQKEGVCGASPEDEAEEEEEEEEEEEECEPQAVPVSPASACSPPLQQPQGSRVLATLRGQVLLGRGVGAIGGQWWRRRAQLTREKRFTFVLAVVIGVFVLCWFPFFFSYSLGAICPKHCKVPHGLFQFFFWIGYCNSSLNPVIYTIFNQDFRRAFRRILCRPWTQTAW
Method: For desensitization experiments, cells were pretreated for 30 min at 37° with media alone or with media containing 10 μM norepinephrine, placed on ice, and washed five times with cold PBS prior to membrane preparation. Desensitization of alpha-2BAR is manifested by a shift to the right in the dose-response curve for the inhibition of adenylyl cyclase (i.e., increase in EC50) without a significant change in the maximal response (17-19). To quantitate the magnitude of this desensitization, the inhibitory response under control conditions at a submaximal concentration of agonist (the EC50) in the assay was determined from the curve and compared to the response to this same concentration from membranes derived from cells exposed to norepinephrine. This method has been previously validated (26) in several G protein coupled receptor systems.

wild-type alpha-2BAR [5] = target: T3, wild-type alpha-2BAR; details: read-out: [125I]-aminoclonidine saturation binding KD
wild-type alpha-2CAR [6] = target: T4, wild-type alpha-2CAR (Homo sapiens, UniProt P18825, L239R/R446P/S401I); details: 10 μM epinephrine, 5 min; 806±140 fmol/mg
T4 sequence (P18825 1-462 L239R/S401I/R446P): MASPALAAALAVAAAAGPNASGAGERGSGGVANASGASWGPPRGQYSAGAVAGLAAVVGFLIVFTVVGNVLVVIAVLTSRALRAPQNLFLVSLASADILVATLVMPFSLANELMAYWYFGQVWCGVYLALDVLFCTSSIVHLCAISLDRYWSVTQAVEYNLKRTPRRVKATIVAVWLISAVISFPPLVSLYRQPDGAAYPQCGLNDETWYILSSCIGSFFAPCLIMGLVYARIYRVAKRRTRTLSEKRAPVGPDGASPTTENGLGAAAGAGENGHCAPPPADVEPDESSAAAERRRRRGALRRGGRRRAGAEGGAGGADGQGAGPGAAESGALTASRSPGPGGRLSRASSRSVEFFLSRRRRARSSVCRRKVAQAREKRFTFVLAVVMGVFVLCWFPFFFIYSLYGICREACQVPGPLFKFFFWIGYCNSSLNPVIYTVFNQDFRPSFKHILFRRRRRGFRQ

wild-type alpha-2CAR [7] = target: T4, wild-type alpha-2CAR; details: 10 μM epinephrine; thrombin 1 unit/ml
wild-type alpha-2CAR [8] = target: T4, wild-type alpha-2CAR; assay: Inhibition of forskolin stimulated adenylyl cyclase, CHO membranes; assay type: biochemical; set-up: expressed in transfected cells; membranes or intact cells; details: lower expressing line 565±69 fmol/mg
wild-type alpha-2CAR [9] = target: T5, wild-type alpha-2CAR (Homo sapiens, UniProt P18825); assay: as above; assay type: biochemical
T5 construct: expressed in transfected cells; membranes or intact cells
T5 sequence (P18825 1-462 L239R/S401I/R446P): T4 sequence (P18825 1-462 L239R/S401I/R446P)

enhanced [35S]GTPγS binding for Lys251 as compared to the Asn251 receptor (Lys251 alpha-2AAR [1]): 45%
Compound: CCN1CCc2nc(N)oc2CC1 [BHT-933]

Forskolin adenylyl cyclase activity [2]: 32.7 ± 4.0 pmol/min/mg | Forskolin adenylyl cyclase activity (Lys251 alpha-2AAR [3]; 5.0 μM forskolin, no agonist): 31.6 ± 6.5 pmol/min/mg
Compound: C=C[C@@]1(C)CC(=O)[C@]2(O)[C@@]3(C)[C@@H](O)CCC(C)(C)[C@@H]3[C@H](O)[C@H](OC(C)=O)[C@@]2(C)O1 [Forskolin, forskolin]
Forskolin adenylyl cyclase activity (wild-type alpha-2BAR [4]; forskolin 5 μM, no agonist): 15.1 ± 0.9 pmol/min/mg

Compound: Brc1c(NC2=NCCN2)ccc2nccnc12 [UK 14304]
enhanced [35S]GTPγS binding for Lys251 as compared to the Asn251 receptor (Lys251 alpha-2AAR [1]): ~40%

Compound: Nc1cc(Cl)c(NC2=NCCN2)c(Cl)c1I [[^125I]-aminoclonidine, aminoclonidine]
Kd (wild-type alpha-2BAR [5]): 1.33 ± 0.12 nM

Compound: CNC[C@H](O)c1ccc(O)c(O)c1 [epinephrine]
accumulation of inositol phosphates over basal (wild-type alpha-2CAR [6]): 30±3% | MAP kinase stimulation as a percent of the thrombin response (wild-type alpha-2CAR [7]): 128±10.0% | inhibition of adenylyl cyclase (wild-type alpha-2CAR [8]): 73±2.4%

enhanced [35S]GTPγS binding for Lys251 as compared to the Asn251 receptor (Lys251 alpha-2AAR [1]): 72%
Compound: N=C(N)N/N=C/c1c(Cl)cccc1Cl [guanabenz]

EC50 (wild-type alpha-2CAR [9]): 219 ± 13.7 nM | enhanced [35S]GTPγS binding for Lys251 as compared to the Asn251 receptor (Lys251 alpha-2AAR [1]): ~40%
Compound: NC[C@H](O)c1ccc(O)c(O)c1 [norepinephrine]
EC50 (wild-type alpha-2BAR [4]): 7.9 ± 2.1 nM | Max Inhibition (%) of forskolin stimulated adenylyl cyclase (wild-type alpha-2BAR [4]; 626±54 fmol/mg): 28.5 ± 1.6% | Desensitization (%) (wild-type alpha-2BAR [4]; after 10 μM norepinephrine 30 min): ~54% | Submax inhibition (%) Ctrl (wild-type alpha-2BAR [4]; agonist at the EC50 of control membranes, cells pretreated with media alone): 16.5 ± 3.9% | Submax inhibition (%) NE (wild-type alpha-2BAR [4]; same agonist concentration, cells pretreated with 10 μM norepinephrine 30 min): 7.6 ± 2.3 %

augmented function of Lys251 compared to the Asn251 receptor (Lys251 alpha-2AAR [3]; adenylyl cyclase inhibition): ~40%
Compound: Cc1cc(C(C)(C)C)c(O)c(C)c1CC1=NCCN1 [oxymetazoline]
